Assay results reported in patent publication US8927569.

Details: from C=CCC(C)(C)COC(=O)N[C@H](C(=O)N1C[C@H](Oc2cc(=O)[nH]c3cc(OC)c(C=C)cc23)C[C@H]1C(=O)OC)C1CCCCC1; rcm bond; Zhan 1b catalyst; DCM; 5.0 mM; 40.0 °C; 32.0 h

Work on `COC(=O)[C@@H]1C[C@@H]2CN1C(=O)[C@H](C1CCCCC1)NC(=O)OCC(C)(C)C/C=C/c1cc3c(cc(=O)[nH]c3cc1OC)O2` yielded a ring closure, yield of all isomers of 99%.
